Experimental data reported in patent US6410792B1, “Amide derivatives and methods for using the same as selective neuropeptide Y receptor antagonists” (Bayer Corporation, priority 1997, dated 2002).

Legend:
Y2 receptor = molecular target: T1, Y2 receptor (Homo sapiens, UniProt P49146); assay: Y2 receptor binding assay ([125I]PYY, membrane protein); conditions: [125I]PYY, membrane protein; read-out: hNPY2 IC50
T1 sequence (P49146 1-381): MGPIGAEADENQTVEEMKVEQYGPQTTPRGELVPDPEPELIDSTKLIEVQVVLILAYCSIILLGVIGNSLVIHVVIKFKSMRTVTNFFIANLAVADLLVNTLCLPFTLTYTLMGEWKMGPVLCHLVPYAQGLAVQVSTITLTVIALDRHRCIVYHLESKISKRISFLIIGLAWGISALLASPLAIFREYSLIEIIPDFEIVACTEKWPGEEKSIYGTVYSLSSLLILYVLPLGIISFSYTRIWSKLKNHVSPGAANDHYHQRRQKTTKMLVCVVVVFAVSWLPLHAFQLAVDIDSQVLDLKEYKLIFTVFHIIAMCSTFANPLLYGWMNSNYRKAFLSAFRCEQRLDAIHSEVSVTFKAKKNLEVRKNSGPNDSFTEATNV
Outline: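 Filtration binding with membrane protein and drug dilution, 2 h at room temperature with mixing, radioactivity counted by gamma or scintillation. Y2: 25 pM [125I]PYY in Krebs-Ringer bicarbonate pH 7.4 with 0.01% BSA, nonspecific by 1 μM NPY. Y4/PP1: 50 pM [125I]hPP in HEPES-buffered saline pH 7.4 with protease inhibitors and 0.3% BSA, nonspecific by 1 μM hPP.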

human Y4/PP1 receptor = human Y4/PP1 receptor (Homo sapiens, UniProt P50391); assay: Human Y4/PP1 receptor binding assay ([125I]human PP, membrane protein); conditions: [125I]human PP, membrane protein; read-out: hNPY4 IC50
Protocol: B. Human Y2 and Y4/PP1 Receptor Binding Assays
Binding assays were performed on GF/C Millipore 96-well plates pretreated with 0.02% polyethylenimine. The binding buffer for rat Y2 binding is Krebs-Ringer bicarbonate (pH 7.4) containing 0.01% BSA and 0.005% bacitracin. Samples consist of membrane protein, 25 pM [1251]PYY and drug dilution. Nonspecific binding is defined by 1 μM NPY. The binding buffer for human Y4/PP1 binding consists of 137 mM NaCl, 5.4 mM KCl, 0.44 mM KH2PO4, 1.26 mM CaCl2, 0.81 mM MgSO4, 20 mM HEPES, 1 mM dithiothreitol, 0.1% bacitracin, 100 mg/l streptomycin sulfate, 1 mg/l aprotinin, 10 mg/ml soybean trypsin inhibitor and 0.3% BSA, pH 7.4. Samples consist of membrane protein, 50 pM human [1251]human PP (hPP: NEN DuPont, Boston, Mass.) and drug dilution. 1 μM hPP is used to define nonspecific binding.
After a 2 hour incubation at room temperature with constant mixing, the samples are aspirated on a vacuum manifold, and rinsed with ice-cold binding buffer. The amount of radioactivity in each well is quantitated with either gamma counting or liquid scintillation.

Human NPY1 receptor = molecular target: T2, Human NPY1 receptor (Homo sapiens, UniProt P25929); assay: Human NPY1 receptor binding assay ([125I]PYY, SK-N-MC cells); conditions: [125I]PYY, SK-N-MC cells; read-out: hNPYI IC50
T2 construct: host or cells: SK-N-MC cells
T2 sequence (P25929 1-384): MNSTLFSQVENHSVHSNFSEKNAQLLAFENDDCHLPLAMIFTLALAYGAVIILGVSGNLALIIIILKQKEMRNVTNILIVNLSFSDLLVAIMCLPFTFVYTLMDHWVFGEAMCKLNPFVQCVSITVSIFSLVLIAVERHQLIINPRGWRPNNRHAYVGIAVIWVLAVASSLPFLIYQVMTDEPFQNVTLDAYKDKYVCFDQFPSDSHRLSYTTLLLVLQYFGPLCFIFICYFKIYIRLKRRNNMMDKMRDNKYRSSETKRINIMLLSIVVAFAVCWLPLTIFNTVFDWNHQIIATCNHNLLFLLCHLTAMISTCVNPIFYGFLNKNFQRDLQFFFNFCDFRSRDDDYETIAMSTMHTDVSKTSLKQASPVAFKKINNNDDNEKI
Protocol: A. Human NPY1 Receptor Binding Assay
This is a modification of Gordon et al., (J. Neurochem. 55:506-513, 1990). SK-N-MC cell (ATCC, Rockville, Md.) were plated in 24-well plates. Once confluent, cells were rinsed with Dulbecco's phosphate buffered saline (DPBS). Cells were then preincubated in binding buffer containing serum-free DMEM, 25 mM HEPES (pH 7.3), 0.5% bovine serum albumin (BSA), 0.1% bacitracin and 0.1 mM phenylmethylsulfonylfluoride for 30 minutes at room temperature. Drug dilution and [125I]PYY (˜50 pM: NEN-DuPont) were added to the wells, and the cells were incubated for an additional 3 hours at room temperature, followed by rinsing with ice-cold DPBS. Nonspecific binding was defined with 1 μM NPY. After lysing the cells with 1% Triton X-100, the amount of radioactivity in the lysates was quantitated with a gamma counter.

Human NPY5 receptor = molecular target: T3, Human NPY5 receptor (Homo sapiens, UniProt Q15761); assay: Human NPY5 receptor binding assay ([125I]PYY, membrane protein); conditions: [125I]PYY, read-out: hNPY5 IC50
T3 sequence (Q15761 1-445): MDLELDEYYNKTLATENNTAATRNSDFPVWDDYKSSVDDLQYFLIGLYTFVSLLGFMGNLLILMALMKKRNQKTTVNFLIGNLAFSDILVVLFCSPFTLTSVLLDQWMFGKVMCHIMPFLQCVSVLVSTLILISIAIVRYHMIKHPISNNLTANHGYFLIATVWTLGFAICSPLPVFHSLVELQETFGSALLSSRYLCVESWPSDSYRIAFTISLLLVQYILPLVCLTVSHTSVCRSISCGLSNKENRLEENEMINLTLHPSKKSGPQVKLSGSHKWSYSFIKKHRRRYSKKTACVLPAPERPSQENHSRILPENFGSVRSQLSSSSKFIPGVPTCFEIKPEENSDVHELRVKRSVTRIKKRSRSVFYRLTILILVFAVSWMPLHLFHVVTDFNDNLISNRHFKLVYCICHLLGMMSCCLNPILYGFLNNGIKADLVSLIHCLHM
Outline: (§1)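 Compounds compete with porcine [125I]PYY (75-100 pM) for receptor sites on membrane protein over a 2 hour room-temperature incubation at pH 7.4. Unlabelled PYY at 1 μM defines nonspecific binding, and filter-retained radioactivity gives the read-out.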

Rat NPY5 receptor = molecular target: T4, Rat NPY5 receptor (Rattus norvegicus, UniProt Q63634); assay: Rat NPY5 receptor binding assay ([125I]PYY, membrane protein); conditions: [125I]PYY, read-out: rNPY5 IC50
T4 sequence (Q63634 1-445): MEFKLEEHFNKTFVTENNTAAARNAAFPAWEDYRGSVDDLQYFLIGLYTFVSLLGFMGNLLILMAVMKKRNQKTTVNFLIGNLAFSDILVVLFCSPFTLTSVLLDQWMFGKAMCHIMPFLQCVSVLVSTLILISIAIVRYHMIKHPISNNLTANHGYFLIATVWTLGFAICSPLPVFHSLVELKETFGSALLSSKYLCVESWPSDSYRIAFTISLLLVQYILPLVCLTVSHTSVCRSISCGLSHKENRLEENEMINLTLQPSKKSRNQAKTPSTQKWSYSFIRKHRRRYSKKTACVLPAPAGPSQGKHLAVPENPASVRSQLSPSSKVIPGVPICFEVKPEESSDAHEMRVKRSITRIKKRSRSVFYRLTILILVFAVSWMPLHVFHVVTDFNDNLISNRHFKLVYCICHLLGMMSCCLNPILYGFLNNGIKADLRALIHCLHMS
Outline: as §1

human Y4/PP1 receptor, sequence (P50391 whole entry): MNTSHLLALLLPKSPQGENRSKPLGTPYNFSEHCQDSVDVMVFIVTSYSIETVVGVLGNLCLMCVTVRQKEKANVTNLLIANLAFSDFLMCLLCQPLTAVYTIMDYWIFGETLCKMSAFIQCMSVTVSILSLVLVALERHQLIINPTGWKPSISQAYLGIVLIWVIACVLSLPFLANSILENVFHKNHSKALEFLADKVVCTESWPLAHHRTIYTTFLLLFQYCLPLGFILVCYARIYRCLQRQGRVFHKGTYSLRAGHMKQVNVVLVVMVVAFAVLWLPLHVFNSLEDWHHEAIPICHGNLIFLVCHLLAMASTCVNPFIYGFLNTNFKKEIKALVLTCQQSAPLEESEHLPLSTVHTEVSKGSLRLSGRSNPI

Row | Compound | melting point | IC50 (Y2 receptor) | IC50 (human Y4/PP1 receptor) | IC50 (Human NPY1 receptor) | IC50 (Human NPY5 receptor) | IC50 (Rat NPY5 receptor)
1 | O.O=C(CN1CCC(n2c(=O)[nH]c3ccccc32)CC1)Nc1ccc(-c2cnco2)cc1 (hydrate or solvate) [Compound 267, N-(4-Oxazol-5-yl-phenyl)-2-[4-(2-oxo-2,3-dihydro-benzoimidazol-1-yl)-piperidin-1-yl]-acetamide; hydrate] | 177 to 178 °C |  |  |  |  | 
2 | O=C(CN1CCC(n2c(=O)[nH]c3ccccc32)CC1)NC1CCCC1.O=C(O)C(=O)O [Compound 288, N-Cyclopentyl-2-[4-(2-oxo-2,3-dihydro-benzoimidazol-1-yl)-piperidin-1-yl]-acetamide; compound with oxalic acid] | 217 to 218 °C | > 5 µM | > 5 µM |  |  | 
3 | CC(C)OCCCNC(=O)CN1CCC(n2c(=O)[nH]c3ccccc32)CC1 [Compound 289, N-(3-Isopropoxy-propyl)-2-[4-(2-oxo-2,3-dihydro-benzoimidazol-1-yl)-piperidin-1-yl]-acetamide] | 67 to 68 °C |  |  |  |  | 
4 | O=C(CN1CCC(n2c(=O)[nH]c3ccccc32)CC1)Nc1ccc(Cl)cc1 [Compound 358, N-(4-Chloro-phenyl)-2-[4-(2-oxo-2,3-dihydro-benzoimidazol-1-yl)-piperidin-1-yl]-acetamide, reference compound] |  | > 5 µM | > 5 µM | > 5 µM | 0.73 µM | 0.443 µM
5 | COC(=O)c1ccc(NC(=O)CN2CCC(n3c(=O)[nH]c4ccccc43)CC2)cc1 [Compound 360, 4-(2-[4-(2-Oxo-2,3-dihydro-benzoimidazol-1-yl)-piperidin-1-yl]-acetylamino)-benzoic acid methyl ester, reference compound] |  | > 5 µM | > 5 µM | > 5 µM | 0.055 µM | 0.0562 µM
6 | COc1ccc(NC(=O)CN2CCC(n3c(=O)[nH]c4ccccc43)CC2)cc1 [Compound 361, N-(4-Methoxy-phenyl)-2-[4-(2-oxo-2,3-dihydro-benzoimidazol-1-yl)-piperidin-1-yl]-acetamide, reference compound] |  | > 5 µM | > 5 µM | > 5 µM | 0.41 µM | 0.539 µM
7 | N-(2-Amino-4-propylsulfnyl-phenyl)-2-[4-(2-oxo-2,3-dihydro-benzoimidazol-1-yl)-pipendin-1-yl]-acetamide; compound with GENERIC INORGANIC NEUTRAL COMPONENT [Compound 339, reference compound] |  | > 5 µM | > 5 µM | > 5 µM | 0.034 µM | 0.031 µM

Other lines, results leading:

Row | melting point | IC50 (Y2 receptor) | IC50 (human Y4/PP1 receptor) | IC50 (Human NPY1 receptor) | IC50 (Human NPY5 receptor) | IC50 (Rat NPY5 receptor) | Compound
8 | 179 to 180 °C | > 5 µM | > 5 µM |  |  |  | O=C(CN1CCC(n2c(=O)[nH]c3ccccc32)CC1)NCC1CCCO1 (stereo not shown) [Compound 285, 2-[4-(2-Oxo-2,3-dihydro-benzoimidazol-1-yl)-piperidin-1-yl]-N-(tetrahydro-furan-2-ylmethyl)-acetamide]
9 | 158 °C | > 5 µM | > 5 µM |  |  |  | Cl.O=C(CN1CCC(n2c(=O)[nH]c3ccccc32)CC1)N1CCCCCCC1 [Compound 305, 1-[1-(2-Azocan-1-yl-2-oxo-ethyl)-piperidin-4-yl]-1,3-dihydro-benzoimidazol-2-one; hydrochloride]
10 | 204 °C | > 5 µM | > 5 µM |  |  |  | Cl.O=C(CN1CCC(n2c(=O)[nH]c3ccccc32)CC1)Nc1cccc2c1C(=O)c1ccccc1-2 [Compound 307, 2-[4-(2-Oxo-2,3-dihydro-benzoimidazol-1-yl)-piperidin-1-yl]-N-(9-oxo-9H-fluoren-1-yl)-acetamide; hydrochloride]
11 | 166 °C | > 5 µM | > 5 µM |  |  |  | O=C(CN1CCC(n2c(=O)[nH]c3ccccc32)CC1)N1CCCCCC1 [Compound 309, 1-[1-(2-Azepan-1-yl-2-oxo-ethyl)-piperidin-4-yl]-1,3-dihydro-benzoimidazol-2-one]
12 |  | > 5 µM | > 5 µM | > 5 µM | 0.58 µM | 0.979 µM | CC(=O)Nc1ccc(NC(=O)CN2CCC(n3c(=O)[nH]c4ccccc43)CC2)cc1 [Compound 351, N-(4-Acetylamino-phenyl)-2-[4-(2-oxo-2,3-dihydro-benzoimidazol 1-yl)-piperidin-1-yl]-acetamide, reference compound]
13 |  | > 5 µM | > 5 µM | > 5 µM | 0.135 µM | 0.187 µM | CN(C)c1ccc(NC(=O)CN2CCC(n3c(=O)[nH]c4ccccc43)CC2)cc1 [Compound 353, N-(4-Dimethylamino-phenyl)-2-[4-(2-oxo-2,3-dihydro-benzoimidazol-1-yl)-piperidin-1-yl]acetamide, reference compound]
14 |  | > 5 µM | > 5 µM | > 5 µM | 0.2 µM | 0.19 µM | O=C(CN1CCC(n2c(=O)[nH]c3ccccc32)CC1)Nc1ccc([N+](=O)[O-])cc1 [Compound 355, N-(4-Nitro-phenyl)-2-[4-(2-oxo-2,3-dihyro-benzoimidazol-1-yl)-piperidin-1-yl]-acetamide, reference compound]
